Source: patent US20240122917A1, “USE OF COMPOSITION CONTAINING CILOSTAZOL IN CEREBROVASCULAR DISEASES” (NEURODAWN PHARMACEUTICAL CO., LTD., priority 2021, published 2024)

Legend:
[1] = system: rats with focal cerebral ischemia-reperfusion injury (MCAO rats); assay: Rat focal cerebral ischemia-reperfusion model (internal carotid artery suture method), area of cerebral infarction by TTC staining; assay type: in vivo, Sprague-Dawley (SD) rats; details: for Area of cerebral infarction (%): 24 hours after cerebral ischemia, mean ± SD; for area of cerebral infarction in MCAO rats (in words) / neurological deficits in MCAO rats: cilostazol at 1-15 mg/kg or edaravone at 1.67-8.33 mg/kg in the tail vein
Experimental: The experimental animals were divided into 4 groups, cilostazol group (1 mg/kg), edaravone group (5 mg/kg), cilostazol and edaravone composition group (6 mg/kg, cilostazol:edaravone=1:5, cilostazol 1 mg/kg+edaravone 5 mg/kg) and model group. After the cerebral ischemia model was established, the animals were assigned to each group in a single-blind manner with equal probability. After reperfusion, the animals were immediately administered intravenously with the drugs once. The animals in the model group were administered with an equal volume of normal saline. The animals were sacrificed 24 hours after cerebral ischemia, and their brains were taken out, stained, and photographed for determining the area of cerebral infarction.
The rat focal cerebral ischemia-reperfusion model was established by internal carotid artery suture method. The limbs (hind limbs above the knee joint and forelimbs below the wrist joint) and head of an anesthetized rat were tightened with rubber bands. The animal was fixed on an operating table in supine position, and was shaved with an animal shaver from the head to the chest, and the skin was disinfected with alcohol. The neck of the rat was cut at the midline, and the subcutaneous tissue was bluntly separated. The thin layer of fascia on the surface of the anterior triangle of the neck was separated, the lower side-lower edge of the clavicular hyoid muscle was pulled up, and the longitudinally pulsating artery parallel to this muscle can be seen. The arterial shell was opened, and the bifurcation of the right carotid artery was exposed. The right common carotid artery, external carotid artery and internal carotid artery were separated. The vagus nerve was gently stripped, and the external carotid artery was ligated and cut. The proximal end of the common carotid artery was clamped. An incision was made at the distal end from the ligature of the external carotid artery, and was inserted with a suture line, which was passed through the bifurcation of the common carotid artery into the internal carotid artery, and then was inserted slowly until reaching slight resistance (approximately 20 mm from the bifurcation), so as to block all blood supply to the middle cerebral artery. The suture line was slightly fixed below the incision of the external carotid artery with silk thread. The silk thread clamping the proximal end of the common carotid artery was loosened. A gauze soaked in sterile saline was covered on the wound, and the rat was placed on a heat preservation pad to keep warm. 2.0 h after cerebral ischemia on the right side, the suture line was pulled out gently to restore the blood supply for reperfusion. The external carotid artery was ligated with silk thread fixing the suture line. The skin was stitched, and disinfected. The rats were placed in clean feed, and their general condition and respiration were observed until they woke up from anesthesia. The rats were provided with food and water, and commonly reared.
The animals were subjected to evaluation of neurological deficit symptoms and then sacrificed with CO2. The brain was taken out by cutting off head. The olfactory bulb, cerebellum and lower brainstem were removed. The blood on the surface of the brain was washed with normal saline, and the residual water on the surface was removed. The brain was placed at −20° C. for 20 min, then taken out, immediately cut to a coronal section vertically downward at the crossing plane of the line of sight, and sliced backward every 2 mm. The brain slices were incubated in 1% TTC staining solution (at 37° C. for 30 min). The normal brain tissue was stained into dark red, and the ischemic brain tissue was stained into pale white. After being washed with normal saline, the brain slices were quickly arranged in a row from front to back, removed off the residual water on the surface, and photographed. […]

[2] = system: mice with focal cerebral ischemia-reperfusion injury (MCAO mice); assay: Mouse focal cerebral ischemia-reperfusion model (internal carotid artery suture method), area of cerebral infarction by TTC staining; assay type: in vivo, C57BL/6J mice; details: cilostazol at 3.33-16.67 mg/kg or edaravone at 3.33-16.67 mg/kg in the tail vein
Experimental: The animals were subjected to evaluation of neurological deficit symptoms and then sacrificed with CO2. The brain was taken out by cutting off head. The olfactory bulb, cerebellum and lower brainstem were removed. The blood on the surface of the brain was washed with normal saline, and the residual water on the surface was removed. The brain was placed at −20° C. for 20 min, then taken out, immediately cut to a coronal section vertically downward at the crossing plane of the line of sight, and sliced backward every 2 mm. The brain slices were incubated in 1% TTC staining solution (at 37° C. for 30 min). The normal brain tissue was stained into dark red, and the ischemic brain tissue was stained into pale white. After being washed with normal saline, the brain slices were quickly arranged in a row from front to back, removed off the residual water on the surface, and photographed.
Calculation of area of cerebral infarction: The photos were processed by Image J software, and the corresponding area of left brain and non-infarction area of right brain were calculated according to the formula, so that the percentage of the area of infarction was calculated.
The experimental animals were divided into 4 groups, a model group and three groups of compositions of cilostazol/edaravone (respectively a group of cilostazol 3.33 mg/kg+edaravone 16.67 mg/kg in 1:5; a group of cilostazol 5.71 mg/kg+edaravone 14.29 mg/kg in 1:2.5; a group of cilostazol 10 mg/kg+edaravone 10 mg/kg in 1:1, and each composition was administered at a total amount of 20 mg/kg). After the cerebral ischemia model was established, the animals were assigned to each group in a single-blind manner with equal probability. After reperfusion, the animals were immediately administered intravenously with the drugs once. The animals in the model group were administered with an equal volume of normal saline. The animals were sacrificed 24 hours after cerebral ischemia, and their brains were taken out, stained, and photographed for determining the area of cerebral infarction.
Establishment of focal cerebral ischemia-reperfusion model: The mouse focal cerebral ischemia-reperfusion model was established by internal carotid artery suture method. An anesthetized mouse was fixed on an operating table in a supine position. The neck of the mice was cut at the midline, and the subcutaneous tissue was bluntly separated. The right common carotid artery, external carotid artery, and internal carotid artery were separated. […]

[3] = system: rats with focal cerebral ischemia-reperfusion injury (MCAO rats); assay: Rat focal cerebral ischemia-reperfusion model (internal carotid artery suture method), area of cerebral infarction by TTC staining; assay type: in vivo, Sprague-Dawley (SD) rats; details: 24 hours after cerebral ischemia, mean ± SD
plasma protein = details: background statement; cited from earlier work

Structure (SMILES)	Area of cerebral infarction (%) ([1]; Example 1, cilostazol 1 mg/kg i.v. once immediately after reperfusion, 2.0 h ischemia, model group 40.35 ± 8.24)	area of cerebral infarction in MCAO rats (in words) [1]	neurological deficits in MCAO rats [1]	area of cerebral infarction in MCAO mice (in words) [2]	neurological deficits in MCAO mice [2]	Area of cerebral infarction (%) ([3]; Example 2, cilostazol 5 mg/kg i.v. once immediately after reperfusion, model group 40.50 ± 8.51)	Area of cerebral infarction (%) ([3]; Example 3, cilostazol 15 mg/kg i.v. once immediately after reperfusion, model group 39.41 ± 9.56)	binding rate to plasma protein (plasma protein)	Area of cerebral infarction (%) ([1]; Example 1, edaravone 5 mg/kg i.v. once immediately after reperfusion, model group 40.35 ± 8.24)	Area of cerebral infarction (%) ([1]; Example 2, edaravone 5 mg/kg i.v. once immediately after reperfusion, model group 40.50 ± 8.51)	Area of cerebral infarction (%) ([3]; Example 3, edaravone 3 mg/kg i.v. once immediately after reperfusion, model group 39.41 ± 9.56)
O=C1CCc2cc(OCCCCc3nnnn3C3CCCCC3)ccc2N1 [Cilostazol]	34.24 ± 7.25	reduce the area of cerebral infarction	significantly ameliorate the neurological deficits	reduce the area of cerebral infarction	significantly ameliorate the neurological deficits	32.59 ± 7.15	27.26 ± 9.74	about 95%	–	–	–
CC1=NN(c2ccccc2)C(=O)C1 [Edaravone, 3-methyl-1-phenyl-2-pyrazolin-5-one]	–	reduce the area of cerebral infarction	significantly ameliorate the neurological deficits	reduce the area of cerebral infarction	significantly ameliorate the neurological deficits	–	–	–	29.35 ± 10.45	29.49 ± 9.06	31.24 ± 6.83
